Patent publication US10294248B2, “Beta-lactamase inhibitors” (VenatoRx Pharmaceuticals, Inc., priority 2013, dated 2019)

What was measured:
[1] = test system: E. cloacae 144200 expressing Class C P99 AmpC; experiment: Broth microdilution MIC, E. cloacae 144200 p99 AmpC; assay type: cell-based; details: fixed 4 μg/mL ceftazidime; CAMHB, 16-20 hours at 37° C.
Source text: (§1) To determine the ability of test compounds to potentiate the inhibition of the growth of bacterial strains that produce beta-lactamase enzymes, classic cell based broth microdilution MIC assays were employed. Six bacteria strains producing beta-lactamase enzymes were used: E. coli expressing the Class A Extended Spectrum Beta-Lactamase (ESBL) CTX-M-15, E. cloacae expressing the Class C P99, K. pneumoniae expressing the Class A carbapenemase KPC-3, P. aeruginosa expressing the Class B carbapenemase VIM-2, K. pneumoniae expressing the class A carbapenemase KPC-2 and the class B carbapenemase VIM-4, and S. aureus producing the Class A penicillinase PC-1. The assay was conducted in Cation Adjusted Mueller Hinton Broth (CAMHB, BD #212322, BD Diagnostic Systems, Sparks, Md.). Bacteria strains were grown for 3-5 hours in CAMBH broth. Test compounds (Examples 1-30) were added to a microtiter plate in 2-fold serial dilutions in CAMHB in a final concentration range of 32 μg/mL to 0.25 μg/ml. An overlay of CAMHB containing a Beta-lactam was added to the compounds at a final static concentration of 4 μg/ml. […] In addition to the titration of test compounds the MICs of a panel of control beta-lactams is also tested to ensure the strains are behaving consistently from test to test. Once the test compound and antibiotics are added the plates can be inoculated according to CLSI broth microdilution method. After inoculation the plates are incubated for 16-20 hours at 37° C. then the Minimal Inhibitory Concentration (MIC) of the test compound is determined visually.
(§2) Using the methodology described above, examples of the current invention were evaluated for their ability to inhibit the growth of β-lactamase-producing bacteria in the presence of a β-lactam antibiotic.
(§3) Using the methodology described above in EXAMPLE III, exemplary compounds for Formula I or Formula Ia were evaluated for their ability to inhibit the growth of β-lactamase producing bacteria in the presence of a β-lactam antibiotic.

[2] = test system: P. aeruginosa Ps296 expressing VIM-2; experiment: Broth microdilution MIC, P. aeruginosa Ps296 VIM-2; assay type: cell-based; details: fixed 4 μg/mL meropenem; CAMHB, 16-20 hours at 37° C.
Source text: as §1, §2, §3

[3] = target: T1, p99 AmpC β-lactamase (Class C) (Enterobacter cloacae, UniProt P05364); experiment: β-Lactamase inhibition, p99 AmpC; assay type: biochemical
T1 construct: made in house; host or cells: E. coli BL21(DE3)
Description: (§4) For SHV-5, Kpc-2, p99AmpC and OXA-1 β-lactamases, E. coli BL21(DE3) bacterial cells carrying expression plasmids (expressed as native untagged proteins) for the individual β-lactamases were grown in 1 L of Superbroth (Teknova Inc. Hollister, Calif.) supplemented with 100 μg/ml kanamycin selection and 1×5052 (0.5% glycerol, 0.05% glucose and 0.2% α-lactose) at 35° C. for 18-20 hours. Cells were harvested by centrifugation (4,000×g, 4° C., 20 min), resuspended in 50 ml of 10 mM HEPES pH 7.5 ( 1/20 of the initial volume). The cells were lysed by sonication (5 pulses of 45 seconds) at 45 W on ice. The lysates were clarified by centrifugation at 10,000×g for 40 minutes at 4° C. Samples were diluted 5-fold in 50 mM sodium acetate pH 5.0, stored overnight at 4° C., after which they were centrifuged at 10,000×g for 30 minutes to clarify, and filtered through 0.45 μm filters. The samples were loaded onto a 5 ml Capto S sepharose cation exchange column (GE Healthcare) pre-equilibrated with 50 mM sodium acetate pH 5.0. The column was washed with 5 column volumes of 50 mM sodium acetate pH 5.0 to wash out unbound protein and a linear gradient of NaCl (0 to 500 mM) was used to elute the protein (over 16 CV) from the column. Fractions were assayed for β-lactamase activity using Centa (Calbiochem, Gibbstown, N.J.) or Nitrocefin (EMD Millipore chemicals, Darmstadt, Germany) as a reporter β-lactamase substrate for activity in the isolated fractions. Active fractions were pooled, concentrated and further purified by gel filtration chromatography on a Superdex 75 prep grade gel filtration column (GE Healthcare, Piscataway, N.J.) pre-equilibrated in 50 mM Hepes pH 7.5, 150 mM NaCl. Active fractions were pooled concentrated, quantitated by BCA protein determination (Thermo Scientific, Rockford, Ill.), dialyzed into PBS and frozen at −80° C. in 20% glycerol until use.
(§5) An equal volume of diluted enzyme stock was added, and the plates were incubated at 37° C. for 15 min. Nitrocefin was used as substrate for p99 AmpC, VIM-2 and OXA-1 and dispensed into each well at a final concentration of 100 μM. Absorbance at 486 nm was immediately monitored for 10 min using a Biotek Powerwave XS2 microplate spectrophotometer using the GEN5 software package (Biotek Instruments, Winooski Vt.). In an analogous fashion, imipenem was used as substrate for Kpc-2 and Cefotaxime was used for SHV-5, while changes in absorbance upon hydrolysis of the β-lactam ring were monitored at 300 nm and 260 nm respectively in UV-transparent 96-well microtiter assay plates. Maximum rates of hydrolysis were compared to those in control wells (without inhibitors), and percentages of enzyme inhibition were calculated for each concentration of inhibitor. The concentration of inhibitor needed to reduce the initial rate of hydrolysis of substrate by 50% (IC50) was calculated as the residual activity of β-lactamase at 486 nm using GraFit version 7 kinetics software package (Erithacus Software, Surrey, UK).
(§6) Using the methodology described above, examples of the current invention were evaluated for their ability to inhibit β-lactamase enzymes from all four Ambler classifications (A through D). […] NT=Not tested.

[4] = test system: S. aureus MSSA-7 producing penicillinase PC-1; experiment: Broth microdilution MIC, S. aureus MSSA-7 PC-1; assay type: cell-based; details: fixed 4 μg/mL piperacillin; CAMHB, 16-20 hours at 37° C.
Source text: as §1, §2, §3

[5] = target: T2, OXA-1 β-lactamase (Class D oxacillinase) (Escherichia coli, UniProt P13661); experiment: β-Lactamase inhibition, OXA-1; assay type: biochemical; details: nitrocefin 100 μM, 486 nm; 15 min preincubation at 37° C., PBS pH 7.4
T2 construct: made in house; host or cells: E. coli BL21(DE3)
Description: as §4, §5, §6

[6] = target: T3, VIM-2 metallo-β-lactamase (Class B) (Pseudomonas aeruginosa, UniProt Q9K2N0); experiment: β-Lactamase inhibition, VIM-2; assay type: biochemical; details: nitrocefin 100 μM, 486 nm; 15 min preincubation at 37° C., PBS pH 7.4
T3 construct: made in house; host or cells: E. coli BL21(DE3)
Description: For Vim-2 metallo β-lactamase, the procedure was identical with the following exceptions, first the protein was not pH adjusted to pH 5 with 50 mM sodium acetate, second, the chromatography step was changed to a 5 ml Q sepharose anion exchange column pre-equilibrated with 50 mM Hepes pH 7.5, and elution of the protein was achieved by a linear gradient of NaCl (0-600 mM). Finally, the VIM-2 purification required a second run (3rd step) on the Q sepharose anion exchange column to achieve acceptable purity (>90%).
as §5, §6

[7] = test system: K. pneumoniae A-1797 expressing KPC-2 and VIM-4; experiment: Broth microdilution MIC, K. pneumoniae A-1797 KPC-2/VIM-4; assay type: cell-based; details: fixed 4 μg/mL meropenem; CAMHB, 16-20 hours at 37° C.
Source text: as §1, §2, §3

[8] = test system: K. pneumoniae 156319 expressing KPC-3; experiment: Broth microdilution MIC, K. pneumoniae 156319 KPC-3; assay type: cell-based; details: fixed 4 μg/mL meropenem; CAMHB, 16-20 hours at 37° C.
Source text: as §1, §2, §3

[9] = test system: E. coli ESBL4 expressing CTX-M-15; experiment: Broth microdilution MIC, E. coli ESBL4 CTX-M-15; assay type: cell-based; details: fixed 4 μg/mL ceftazidime; CAMHB, 16-20 hours at 37° C.
Source text: as §1, §2, §3

[10] = target: T4, SHV-5 β-lactamase (Class A ESBL) (Klebsiella pneumoniae, UniProt P0A3M1); experiment: β-Lactamase inhibition, SHV-5; assay type: biochemical
T4 construct: made in house; host or cells: E. coli BL21(DE3)
Description: as §4, §5, §6

[11] = target: T5, KPC-2 β-lactamase (Class A carbapenemase) (Klebsiella pneumoniae, UniProt Q9F663); experiment: β-Lactamase inhibition, KPC-2; assay type: biochemical; details: imipenem substrate, 300 nm; 15 min preincubation at 37° C., PBS pH 7.4
T5 construct: made in house; host or cells: E. coli BL21(DE3)
Description: as §4, §5, §6

T5 sequence (Q9F663 25-293, looked up): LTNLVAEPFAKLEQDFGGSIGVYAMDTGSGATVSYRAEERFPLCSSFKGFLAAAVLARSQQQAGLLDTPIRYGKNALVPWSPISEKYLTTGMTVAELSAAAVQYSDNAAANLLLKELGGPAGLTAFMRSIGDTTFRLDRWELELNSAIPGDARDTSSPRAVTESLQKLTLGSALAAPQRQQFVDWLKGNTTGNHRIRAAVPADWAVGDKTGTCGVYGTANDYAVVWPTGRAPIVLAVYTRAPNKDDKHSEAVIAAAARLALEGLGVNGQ
T2 sequence (P13661 26-276): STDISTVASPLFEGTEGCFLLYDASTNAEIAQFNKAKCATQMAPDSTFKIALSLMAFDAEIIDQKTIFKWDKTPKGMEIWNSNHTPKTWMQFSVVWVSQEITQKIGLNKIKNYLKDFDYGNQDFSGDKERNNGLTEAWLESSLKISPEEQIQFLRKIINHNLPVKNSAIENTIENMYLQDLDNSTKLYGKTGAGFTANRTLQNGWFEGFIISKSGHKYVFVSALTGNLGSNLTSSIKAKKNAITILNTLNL
T1 sequence (P05364 21-381): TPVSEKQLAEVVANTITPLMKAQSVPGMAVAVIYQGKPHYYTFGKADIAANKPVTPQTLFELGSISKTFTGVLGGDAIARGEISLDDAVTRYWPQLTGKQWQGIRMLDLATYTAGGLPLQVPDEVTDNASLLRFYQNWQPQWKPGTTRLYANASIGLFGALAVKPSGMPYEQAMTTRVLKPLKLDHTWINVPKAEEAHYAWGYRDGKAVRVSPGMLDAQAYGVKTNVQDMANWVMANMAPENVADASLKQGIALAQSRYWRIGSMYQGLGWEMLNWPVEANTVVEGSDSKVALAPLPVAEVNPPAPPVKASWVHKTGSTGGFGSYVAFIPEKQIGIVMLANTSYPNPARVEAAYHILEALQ
T4 sequence (P0A3M1 22-286): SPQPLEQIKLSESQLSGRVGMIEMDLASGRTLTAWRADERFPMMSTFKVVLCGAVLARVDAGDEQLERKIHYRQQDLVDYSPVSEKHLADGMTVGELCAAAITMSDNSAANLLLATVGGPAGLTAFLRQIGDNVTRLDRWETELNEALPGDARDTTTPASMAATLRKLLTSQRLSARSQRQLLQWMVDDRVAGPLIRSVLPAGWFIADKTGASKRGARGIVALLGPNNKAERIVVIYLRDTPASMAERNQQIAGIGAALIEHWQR

Row | Compound | MIC of example compound in presence of fixed β-lactam: Fixed CAZ, E. cl. 144200 p99 AmpC [1] | MIC of example compound in presence of fixed β-lactam: Fixed Mero, P. aerug. Ps296 VIM-2 [2] | IC50 [3] [nM] | MIC of example compound in presence of fixed β-lactam: Fixed Pip, S. aureus MSSA-7 PC-1 [4] | IC50 [5] [nM] | IC50 [6] [nM] | MIC of example compound in presence of fixed β-lactam: Fixed Mero, K. P. A-1797 KPC-2 VIM-4 [7] | MIC of example compound in presence of fixed β-lactam: Fixed Mero, K. P. 156319 KPC-3 [8] | MIC of example compound in presence of fixed β-lactam: Fixed CAZ, E. coli ESBL4 CTX-M-15 [9] | IC50 [10] [nM] | IC50 [11] [nM]
1 | NCCN1CCC(CC(=O)N[C@H]2Cc3cccc(C(=O)O)c3OB2O)CC1 [Example 41, 3-{2-[1-(2-Amino-ethyl)-piperidin-4-yl]-acetylamino}-2-hydroxy-3,4-dihydro-2H-benzo[e][1,2]oxaborinine-8-carboxylic acid] | C (the MIC in the presence of <4 μg/mL of a β-lactamase inhibitor) | C (the MIC in the presence of <4 μg/mL of a β-lactamase inhibitor) | < 100 | C (the MIC in the presence of <4 μg/mL of a β-lactamase inhibitor) | < 100 | 100 to 1000 | C (the MIC in the presence of <4 μg/mL of a β-lactamase inhibitor) | C (the MIC in the presence of <4 μg/mL of a β-lactamase inhibitor) | C (the MIC in the presence of <4 μg/mL of a β-lactamase inhibitor) | < 100 | < 100
2 | NC1CCN(CCC(=O)N[C@H]2Cc3cccc(C(=O)O)c3OB2O)CC1 [Example 22, 3-[3-(4-Amino-piperidin-1-yl)-propionylamino]-2-hydroxy-3,4-dihydro-2H-benzo[e][1,2]oxaborinine-8-carboxylic acid] | C (the MIC in the presence of <4 μg/mL of a β-lactamase inhibitor) | A (an MIC of the fixed β-lactam antibiotic in the presence of >32 μg/mL of a β-lactamase inhibitor) | < 100 | C (the MIC in the presence of <4 μg/mL of a β-lactamase inhibitor) | 100 to 1000 | 1000 to 10000 | A (an MIC of the fixed β-lactam antibiotic in the presence of >32 μg/mL of a β-lactamase inhibitor) | B (the MIC in the presence of between 8 and 32 μg/mL of a β-lactamase inhibitor) | C (the MIC in the presence of <4 μg/mL of a β-lactamase inhibitor) | 100 to 1000 | 100 to 1000
3 | N#CCN1CCC(CC(=O)N[C@H]2Cc3cccc(C(=O)O)c3OB2O)CC1 [Example 35, 3-[2-(1-Cyanomethyl-piperidin-4-yl)-acetylamino]-2-hydroxy-3,4-dihydro-2H-benzo[e][1,2]oxaborinine-8-carboxylic acid] | C (the MIC in the presence of <4 μg/mL of a β-lactamase inhibitor) | A (an MIC of the fixed β-lactam antibiotic in the presence of >32 μg/mL of a β-lactamase inhibitor) | 100 to 1000 | C (the MIC in the presence of <4 μg/mL of a β-lactamase inhibitor) | 100 to 1000 | 10000 to 100000 | B (the MIC in the presence of between 8 and 32 μg/mL of a β-lactamase inhibitor) | B (the MIC in the presence of between 8 and 32 μg/mL of a β-lactamase inhibitor) | C (the MIC in the presence of <4 μg/mL of a β-lactamase inhibitor) | 100 to 1000 | 100 to 1000
4 | CN(C)c1ccc(NC(=O)N2CC(C(=O)N[C@H]3Cc4cccc(C(=O)O)c4OB3O)C2)cc1 [Example 47, (R)-3-(1-(4-(dimethylamino)phenylcarbamoyl)azetidine-3-carboxamido)-2-hydroxy-3,4-dihydro-2H-benzo[e][1,2]oxaborinine-8-carboxylic acid] | C (the MIC in the presence of <4 μg/mL of a β-lactamase inhibitor) | C (the MIC in the presence of <4 μg/mL of a β-lactamase inhibitor) | < 100 | B (the MIC in the presence of between 8 and 32 μg/mL of a β-lactamase inhibitor) | 100 to 1000 | 100 to 1000 | B (the MIC in the presence of between 8 and 32 μg/mL of a β-lactamase inhibitor) | C (the MIC in the presence of <4 μg/mL of a β-lactamase inhibitor) | C (the MIC in the presence of <4 μg/mL of a β-lactamase inhibitor) | < 100 | < 100
